The record followed here is patent US12252524B2, “GIP/GLP1 co-agonist compounds” (Eli Lilly and Company, priority 2018, dated 2025).

Numbered stars: 1 amine (or outer) side, 2 acyl side, 3 side chain; on linkers, the order of the positions; unused ones are H or OH. Square brackets hold non-standard residues; d marks the D form. Side chains are listed from the residue outwards. Peptide text beside a SMILES is read from it. * marks the point of attachment. C20 diacid = O=C(O)CCCCCCCCCCCCCCCCCCC(=O)*; γGlu = O=C(O)[C@H](CCC(=O)[*:2])N[*:1]; AEEA = NCCOCCOCC(=O)O; Aib = CC(C)(N)C(=O)O

The target of one assay is T1, human GIP receptor (Homo sapiens, UniProt P48546).
T1 construct: expressed in transfected cells; crude membranes
T1 sequence (P48546 22-466): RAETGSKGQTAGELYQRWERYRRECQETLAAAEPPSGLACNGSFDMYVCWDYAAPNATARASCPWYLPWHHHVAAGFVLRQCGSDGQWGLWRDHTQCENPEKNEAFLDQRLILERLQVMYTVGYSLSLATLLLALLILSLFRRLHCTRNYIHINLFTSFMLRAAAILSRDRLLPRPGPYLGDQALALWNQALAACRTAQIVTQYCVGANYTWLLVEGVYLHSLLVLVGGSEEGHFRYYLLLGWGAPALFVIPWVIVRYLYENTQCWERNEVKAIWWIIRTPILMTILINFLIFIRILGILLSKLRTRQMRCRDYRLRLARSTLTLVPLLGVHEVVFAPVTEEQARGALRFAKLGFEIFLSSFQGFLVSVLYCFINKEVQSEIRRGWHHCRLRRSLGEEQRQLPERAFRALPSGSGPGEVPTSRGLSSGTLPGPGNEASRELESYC
Briefly: [125I]-GIP binding (SPA), human GIP receptor. Particulars: read-out: hGIPR Ki, nM (SEM, n).

A further assay has as its target human GLP-1R (Homo sapiens, UniProt P43220). Kind of assay: [125I]-GLP-1 binding (SPA), human GLP-1 receptor. Further details: expressed in transfected cells; crude membranes. Particulars: read-out: hGLP1R Ki, (nM) (SEM, n). The method, boiled down: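 Assay buffer: HEPES 25 mM, pH 7.4, CaCl2 2.5 mM, MgCl2 1 mM, with EDTA-free protease inhibitors. Receptor came from crude cell membranes prepared by homogenization and centrifugation at 4° C. IC50s came from four-parameter fits (maximum, minimum, IC50, Hill slope) and were expressed as Ki geometric means with SEM.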

For the next assay, the target named is T2, human Gcg receptor (Homo sapiens, UniProt P47871).
T2 construct: expressed in transfected cells; crude membranes
Briefly: [125I]-Glucagon binding (SPA), human Gcg receptor. Particulars: read-out: hGLcgR Ki, nM (SEM, n). A digest of the protocol: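 Crude membranes from cells expressing the receptor, prepared by hypotonic lysis in 50 mM Tris HCl pH 7.5 with protease inhibitors, homogenization and differential centrifugation, were used in a WGA-bead SPA. Binding buffer: 25 mM HEPES pH 7.4, 2.5 mM CaCl2, 1 mM MgCl2, bacitracin, Tween-20.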

In assay [1] the target is human GLP-1 receptor (GLP-1R) (Homo sapiens, UniProt P43220). Kind of assay: cAMP pharmacological functional assay in presence of casein, hGLP-1R. In kind it is cell-based. Particulars: HEK293 cells expressing hGLP-1R, 0.1% Casein, geometric mean; read-out: hGLP1R cAMP Rel EC50 nM (SEM, n).
Assay [2] has as its target T3, gastric inhibitory peptide receptor (GIPR) (Homo sapiens, UniProt P48546).
T3 sequence (P48546 22-466): T1 sequence (P48546 22-466)
Kind of assay: cAMP pharmacological functional assay in presence of casein, hGIPR. In kind it is cell-based. Particulars: HEK293 cells expressing hGIPR, 0.1% Casein, geometric mean; read-out: hGIPR cAMP Rel EC50 nM (SEM, n).

Sequence of human GLP-1R (P43220 24-463): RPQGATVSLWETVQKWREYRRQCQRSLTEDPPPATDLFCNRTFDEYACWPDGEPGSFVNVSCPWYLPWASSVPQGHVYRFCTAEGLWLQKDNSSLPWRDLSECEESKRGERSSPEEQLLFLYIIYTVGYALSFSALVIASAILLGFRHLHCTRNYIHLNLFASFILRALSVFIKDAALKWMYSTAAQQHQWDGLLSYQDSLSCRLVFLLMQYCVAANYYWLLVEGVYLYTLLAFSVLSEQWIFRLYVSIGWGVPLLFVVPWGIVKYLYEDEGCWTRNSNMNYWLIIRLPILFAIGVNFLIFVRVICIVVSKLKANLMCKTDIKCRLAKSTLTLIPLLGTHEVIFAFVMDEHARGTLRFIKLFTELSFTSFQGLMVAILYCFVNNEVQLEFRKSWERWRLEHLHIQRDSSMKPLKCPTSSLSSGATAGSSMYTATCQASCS
Sequence of human GLP-1 receptor (GLP-1R) (P43220 24-463): as above
T2 sequence (P47871 26-477): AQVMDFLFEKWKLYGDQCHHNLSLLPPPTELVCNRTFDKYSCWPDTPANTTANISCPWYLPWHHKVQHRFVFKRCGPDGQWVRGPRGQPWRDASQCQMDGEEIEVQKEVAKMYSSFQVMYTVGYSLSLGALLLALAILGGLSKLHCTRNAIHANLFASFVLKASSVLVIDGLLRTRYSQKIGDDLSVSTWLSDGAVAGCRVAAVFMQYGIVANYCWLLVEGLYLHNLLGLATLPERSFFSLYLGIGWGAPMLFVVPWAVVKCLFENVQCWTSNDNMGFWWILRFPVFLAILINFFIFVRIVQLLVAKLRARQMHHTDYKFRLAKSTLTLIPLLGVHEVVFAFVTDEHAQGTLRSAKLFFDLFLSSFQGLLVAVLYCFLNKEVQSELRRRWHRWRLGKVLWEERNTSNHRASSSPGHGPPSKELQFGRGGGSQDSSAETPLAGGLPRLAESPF

In the case of `CC[C@H](C)[C@H](NC(=O)[C@H](CCCCN)NC(=O)[C@H](CC(=O)O)NC(=O)[C@H](CC(C)C)NC(=O)[C@H](CC(C)C)NC(=O)[C@@H](NC(=O)[C@H](CO)NC(=O)[C@H](Cc1ccc(O)cc1)NC(=O)[C@H](CC(=O)O)NC(=O)[C@H](CO)NC(=O)[C@@H](NC(=O)[C@H](Cc1ccccc1)NC(=O)[C@@H](NC(=O)CNC(=O)[C@H](CCC(=O)O)NC(=O)C(C)(C)NC(=O)[C@@H](N)Cc1ccc(O)cc1)[C@@H](C)O)[C@@H](C)O)[C@@H](C)CC)C(=O)N[C@@H](C)C(=O)N[C@@H](CCC(N)=O)C(=O)NC(C)(C)C(=O)N[C@@H](C)C(=O)N[C@@H](Cc1ccccc1)C(=O)N[C@H](C(=O)N[C@@H](CCC(=O)O)C(=O)N[C@@H](Cc1ccc(O)cc1)C(=O)N[C@@H](CCCCNC(=O)COCCOCCNC(=O)COCCOCCNC(=O)CC[C@H](NC(=O)CCCCCCCCCCCCCCCCCCC(=O)O)C(=O)O)C(=O)N[C@H](C(=O)N[C@@H](CCC(=O)O)C(=O)NCC(=O)NCC(=O)N1CCC[C@H]1C(=O)N[C@@H](CO)C(=O)N[C@@H](CO)C(=O)NCC(=O)N[C@@H](C)C(=O)N1CCC[C@H]1C(=O)N1CCC[C@H]1C(=O)N1CCC[C@H]1C(=O)N[C@@H](CO)C(N)=O)[C@@H](C)CC)[C@@H](C)CC` [Example 35] (H-Y[Aib]EGTFTSDYSILLDKIAQ[Aib]AFIEYK([AEEA-AEEA-γGlu-C20 diacid])IEGGPSSGAPPPS-NH2), the results for the Ki at human GIP receptor, on human GLP-1R and on human Gcg receptor were 0.0358 nM, 54.6 nM and more than 964 nM, respectively. Also, the results for the half-maximal effective concentration (EC50) in assay [1] and in assay [2] were 8.38 nM and 0.0905 nM, respectively.

As to `CC[C@H](C)[C@H](NC(=O)[C@H](CCCCN)NC(=O)[C@H](CC(=O)O)NC(=O)[C@H](CC(C)C)NC(=O)[C@H](CC(C)C)NC(=O)[C@@H](NC(=O)[C@H](CO)NC(=O)[C@H](Cc1ccc(O)cc1)NC(=O)[C@H](CC(=O)O)NC(=O)[C@H](CO)NC(=O)[C@@H](NC(=O)[C@H](Cc1ccccc1)NC(=O)[C@@H](NC(=O)CNC(=O)[C@H](CCC(=O)O)NC(=O)C(C)(C)NC(=O)[C@@H](N)Cc1ccc(O)cc1)[C@@H](C)O)[C@@H](C)O)[C@@H](C)CC)C(=O)N[C@@H](C)C(=O)N[C@@H](CCC(N)=O)C(=O)NC(C)(C)C(=O)N[C@@H](C)C(=O)N[C@@H](Cc1ccccc1)C(=O)N[C@H](C(=O)N[C@@H](CCC(=O)O)C(=O)N[C@@H](Cc1ccc(O)cc1)C(=O)N[C@@H](CC(C)C)C(=O)N[C@@H](CCCCNC(=O)COCCOCCNC(=O)COCCOCCNC(=O)CC[C@H](NC(=O)CCCCCCCCCCCCCCCCCCC(=O)O)C(=O)O)C(=O)N[C@@H](CCC(=O)O)C(=O)NCC(=O)NCC(=O)N1CCC[C@H]1C(=O)N[C@@H](CO)C(=O)N[C@@H](CO)C(=O)NCC(=O)N[C@@H](C)C(=O)N1CCC[C@H]1C(=O)N1CCC[C@H]1C(=O)N1CCC[C@H]1C(=O)N[C@@H](CO)C(N)=O)[C@@H](C)CC` [Example 36] (H-Y[Aib]EGTFTSDYSILLDKIAQ[Aib]AFIEYLK([AEEA-AEEA-γGlu-C20 diacid])EGGPSSGAPPPS-NH2), the inhibitory constant (Ki) at human GIP receptor was found to be 0.141 nM; on human GLP-1R it was 16.4 nM; on human Gcg receptor, 413 nM. The EC50 in assay [1] was found to be 2.29 nM; in assay [2] it was 0.309 nM.

With `CC[C@H](C)[C@H](NC(=O)[C@H](CCCCN)NC(=O)[C@H](CC(=O)O)NC(=O)[C@H](CC(C)C)NC(=O)[C@H](CC(C)C)NC(=O)[C@@H](NC(=O)[C@H](CO)NC(=O)[C@H](Cc1ccc(O)cc1)NC(=O)[C@H](CC(=O)O)NC(=O)[C@H](CO)NC(=O)[C@@H](NC(=O)[C@H](Cc1ccccc1)NC(=O)[C@@H](NC(=O)CNC(=O)[C@H](CCC(=O)O)NC(=O)C(C)(C)NC(=O)[C@@H](N)Cc1ccc(O)cc1)[C@@H](C)O)[C@@H](C)O)[C@@H](C)CC)C(=O)N[C@@H](C)C(=O)N[C@@H](CCC(N)=O)C(=O)NC(C)(C)C(=O)N[C@@H](C)C(=O)N[C@@H](Cc1ccccc1)C(=O)N[C@H](C(=O)N[C@@H](CCC(=O)O)C(=O)N[C@@H](Cc1ccc(O)cc1)C(=O)N[C@@H](CC(C)C)C(=O)N[C@H](C(=O)N[C@@H](CCCCNC(=O)COCCOCCNC(=O)COCCOCCNC(=O)CC[C@H](NC(=O)CCCCCCCCCCCCCCCCCCC(=O)O)C(=O)O)C(=O)NCC(=O)NCC(=O)N1CCC[C@H]1C(=O)N[C@@H](CO)C(=O)N[C@@H](CO)C(=O)NCC(=O)N[C@@H](C)C(=O)N1CCC[C@H]1C(=O)N1CCC[C@H]1C(=O)N1CCC[C@H]1C(=O)N[C@@H](CO)C(N)=O)[C@@H](C)CC)[C@@H](C)CC` [Example 37] (H-Y[Aib]EGTFTSDYSILLDKIAQ[Aib]AFIEYLIK([AEEA-AEEA-γGlu-C20 diacid])GGPSSGAPPPS-NH2), the Ki worked out at 0.0523 nM on human GIP receptor, 3.84 nM on human GLP-1R and 255 nM at human Gcg receptor. Further, the EC50 was 1.15 nM in assay [1] and 0.269 nM in assay [2].

For the compound `CC[C@H](C)[C@H](NC(=O)[C@H](CCCCN)NC(=O)[C@H](CC(=O)O)NC(=O)[C@H](CC(C)C)NC(=O)[C@H](CC(C)C)NC(=O)[C@@H](NC(=O)[C@H](CO)NC(=O)[C@H](Cc1ccc(O)cc1)NC(=O)[C@H](CC(=O)O)NC(=O)[C@H](CO)NC(=O)[C@@H](NC(=O)[C@H](Cc1ccccc1)NC(=O)[C@@H](NC(=O)CNC(=O)[C@H](CCC(=O)O)NC(=O)C(C)(C)NC(=O)[C@@H](N)Cc1ccc(O)cc1)[C@@H](C)O)[C@@H](C)O)[C@@H](C)CC)C(=O)N[C@@H](C)C(=O)N[C@@H](CCC(N)=O)C(=O)NC(C)(C)C(=O)N[C@@H](C)C(=O)N[C@@H](Cc1ccccc1)C(=O)N[C@H](C(=O)N[C@@H](CCC(=O)O)C(=O)N[C@@H](Cc1ccc(O)cc1)C(=O)N[C@@H](CC(C)C)C(=O)N[C@H](C(=O)N[C@@H](CCC(=O)O)C(=O)N[C@@H](CCCCNC(=O)COCCOCCNC(=O)COCCOCCNC(=O)CC[C@H](NC(=O)CCCCCCCCCCCCCCCCCCC(=O)O)C(=O)O)C(=O)NCC(=O)N1CCC[C@H]1C(=O)N[C@@H](CO)C(=O)N[C@@H](CO)C(=O)NCC(=O)N[C@@H](C)C(=O)N1CCC[C@H]1C(=O)N1CCC[C@H]1C(=O)N1CCC[C@H]1C(=O)N[C@@H](CO)C(N)=O)[C@@H](C)CC)[C@@H](C)CC` [Example 38] (H-Y[Aib]EGTFTSDYSILLDKIAQ[Aib]AFIEYLIEK([AEEA-AEEA-γGlu-C20 diacid])GPSSGAPPPS-NH2), the inhibitory constant (Ki) at human GIP receptor is 0.104 nM; on human GLP-1R, 31.3 nM; on human Gcg receptor it was more than 974 nM. Further, the EC50 stood at 2.82 nM in assay [1] and 0.147 nM in assay [2].

In the case of `CC[C@H](C)[C@H](NC(=O)[C@H](CCCCN)NC(=O)[C@H](CC(=O)O)NC(=O)[C@H](CC(C)C)NC(=O)[C@H](CC(C)C)NC(=O)[C@@H](NC(=O)[C@H](CO)NC(=O)[C@H](Cc1ccc(O)cc1)NC(=O)[C@H](CC(=O)O)NC(=O)[C@H](CO)NC(=O)[C@@H](NC(=O)[C@H](Cc1ccccc1)NC(=O)[C@@H](NC(=O)CNC(=O)[C@H](CCC(=O)O)NC(=O)C(C)(C)NC(=O)[C@@H](N)Cc1ccc(O)cc1)[C@@H](C)O)[C@@H](C)O)[C@@H](C)CC)C(=O)N[C@@H](C)C(=O)N[C@@H](CCC(N)=O)C(=O)NC(C)(C)C(=O)N[C@@H](C)C(=O)N[C@@H](Cc1ccccc1)C(=O)N[C@H](C(=O)N[C@@H](CCC(=O)O)C(=O)N[C@@H](Cc1ccc(O)cc1)C(=O)N[C@@H](CC(C)C)C(=O)N[C@H](C(=O)N[C@@H](CCC(=O)O)C(=O)NCC(=O)N[C@@H](CCCCNC(=O)COCCOCCNC(=O)COCCOCCNC(=O)CC[C@H](NC(=O)CCCCCCCCCCCCCCCCCCC(=O)O)C(=O)O)C(=O)N1CCC[C@H]1C(=O)N[C@@H](CO)C(=O)N[C@@H](CO)C(=O)NCC(=O)N[C@@H](C)C(=O)N1CCC[C@H]1C(=O)N1CCC[C@H]1C(=O)N1CCC[C@H]1C(=O)N[C@@H](CO)C(N)=O)[C@@H](C)CC)[C@@H](C)CC` [Example 39] (H-Y[Aib]EGTFTSDYSILLDKIAQ[Aib]AFIEYLIEGK([AEEA-AEEA-γGlu-C20 diacid])PSSGAPPPS-NH2), the Ki was found to be 0.0499 nM on human GIP receptor, 16.8 nM on human GLP-1R and 161 nM on human Gcg receptor. Further, the results for the EC50 in assay [1] and in assay [2] were 1.92 nM and 0.133 nM, respectively.

Broadly, the Ki is the dissociation constant of the complex between target and ligand, obtained from inhibition or displacement. For orientation: EC50 means the concentration at which the effect is half-maximal.
